Data reported in article PMC9780108, “An intrinsically disordered antimicrobial peptide dendrimer from stereorandomized virtual screening” (Cell Reports. Physical Science, 2022).
In brackets after ≈: the same amount, converted by molar mass. Positions of bridges follow the written chain, without caps; N, C: chain ends. Non-standard residues stand in square brackets, D forms with d. Residues, ends and D or L forms follow the SMILES beside them. Groups on a side chain read outwards from the residue. Chains are numbered I, II in the order given. *: point of attachment. X3 = CC(C)C[C@H](NC(=O)CCCCCN)C(=O)NCCCC[C@H](NC(=O)[C@H](CC(C)C)NC(=O)CCCCCN)C(=O)*; Ahx = NCCCCCC(=O)O

Columns and labels:
P. aeruginosa ZEM9A = details: ZEM9A, pH 7.4
P. aeruginosa PAO1 = details: for MIC at pH 5.0, P. aeruginosa PAO1: PAO1, pH 5; for MIC at pH 7.4, P. aeruginosa PAO1: PAO1, pH 7.4; for MIC at pH 8.0, P. aeruginosa PAO1: PAO1, pH 8
A. baumannii ATCC 19606 = details: for MIC at pH 5.0, A. baumannii ATCC 19606: ATCC 19606, pH 5; for MIC at pH 7.4, A. baumannii ATCC 19606: ATCC 19606, pH 7.4; for MIC at pH 8.0, A. baumannii ATCC 19606: ATCC 19606, pH 8
K. pneumoniae OXA-48 = details: OXA-48, pH 7.4
P. aeruginosa ZEM-1A = details: ZEM-1A, pH 7.4
[1] = system: S aureus COL (methicillin-resistant Staphylococcus aureus); details: for MIC at pH 5.0, S aureus COL: COL (methicillin-resistant, pH 5); for MIC at pH 7.4, S aureus COL: COL (methicillin-resistant, pH 7.4); for MIC at pH 8.0, S aureus COL: COL (methicillin-resistant, pH 8)
K. pneumoniae NCTC 418 = details: for MIC at pH 5.0, K. pneumoniae NCTC 418: NCTC 418, pH 5; for MIC at pH 7.4, K. pneumoniae NCTC 418: NCTC 418, pH 7.4; for MIC at pH 8.0, K. pneumoniae NCTC 418: NCTC 418, pH 8
E. cloacae = details: pH 7.4
E. coli W3110 = details: for MIC at pH 5.0, E. coli W3110: W3110, pH 5; for MIC at pH 7.4, E. coli W3110: W3110, pH 7.4; for MIC at pH 8.0, E. coli W3110: W3110, pH 8
S. maltophilia = details: pH 7.4
P. aeruginosa PA14 = details: PA14, pH 7.4
S. aureus Newman = details: Newman, pH 7.4
B. cenocepacia = details: pH 7.4
HEK293 cell line = assay type: cell-based; details: 48 h
In short: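 HEK293 cells seeded at 2 × 10³/well, incubated 48 h at 37 °C with serially diluted compounds (stock 2 mg/mL) in DMEM with 10% FBS. AlamarBlue added at 10% final for 3–5 h; fluorescence ex 560/em 590 nm, normalized to untreated cells.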

MIC, P. aeruginosa ZEM9A (P. aeruginosa ZEM9A) [µg/mL]	MIC at pH 5.0, P. aeruginosa PAO1 (P. aeruginosa PAO1) [μg/mL]	MIC at pH 7.4, P. aeruginosa PAO1 (P. aeruginosa PAO1) [μg/mL]	MIC at pH 8.0, P. aeruginosa PAO1 (P. aeruginosa PAO1) [μg/mL]	MIC at pH 5.0, A. baumannii ATCC 19606 (A. baumannii ATCC 19606) [μg/mL]	MIC at pH 7.4, A. baumannii ATCC 19606 (A. baumannii ATCC 19606) [μg/mL]	MIC at pH 8.0, A. baumannii ATCC 19606 (A. baumannii ATCC 19606) [μg/mL]	MIC, K. pneumoniae OXA-48 (K. pneumoniae OXA-48) [µg/mL]	MIC, P. aeruginosa ZEM-1A (P. aeruginosa ZEM-1A) [µg/mL]	MIC at pH 5.0, S aureus COL [1] [μg/mL]	MIC at pH 7.4, S aureus COL [1] [μg/mL]	MIC at pH 8.0, S aureus COL [1] [μg/mL]	MIC at pH 5.0, K. pneumoniae NCTC 418 (K. pneumoniae NCTC 418) [μg/mL]	MIC at pH 7.4, K. pneumoniae NCTC 418 (K. pneumoniae NCTC 418) [μg/mL]	MIC at pH 8.0, K. pneumoniae NCTC 418 (K. pneumoniae NCTC 418) [μg/mL]	MIC, E. cloacae (E. cloacae) [µg/mL]	MIC at pH 5.0, E. coli W3110 (E. coli W3110) [μg/mL]	MIC at pH 7.4, E. coli W3110 (E. coli W3110) [μg/mL]	MIC at pH 8.0, E. coli W3110 (E. coli W3110) [μg/mL]	MIC, S. maltophilia (S. maltophilia) [µg/mL]	SMILES	further results
32 (≈ 7.31 µM)	8	4	4	8	4	2	8 (≈ 1.83 µM)	4 (≈ 0.914 µM)	> 64	> 64	8	> 64	> 64	8	4 (≈ 0.914 µM)	8	4	2	4 (≈ 0.914 µM)	CC(C)C[C@H](NC(=O)[C@H](CC(C)C)NC(=O)[C@H](CCCCN)NC(=O)[C@H](CCCCNC(=O)[C@H](CC(C)C)NC(=O)[C@H](CCCCNC(=O)[C@H](CC(C)C)NC(=O)[C@@H](N)CCCCN)NC(=O)[C@H](CC(C)C)NC(=O)[C@@H](N)CCCCN)NC(=O)[C@H](CC(C)C)NC(=O)[C@H](CCCCNC(=O)[C@H](CC(C)C)NC(=O)[C@@H](N)CCCCN)NC(=O)[C@H](CC(C)C)NC(=O)[C@@H](N)CCCCN)C(=O)NCCCC[C@H](NC(=O)[C@H](CC(C)C)NC(=O)[C@H](CC(C)C)NC(=O)[C@H](CCCCN)NC(=O)[C@H](CCCCNC(=O)[C@H](CC(C)C)NC(=O)[C@H](CCCCNC(=O)[C@H](CC(C)C)NC(=O)[C@@H](N)CCCCN)NC(=O)[C@H](CC(C)C)NC(=O)[C@@H](N)CCCCN)NC(=O)[C@H](CC(C)C)NC(=O)[C@H](CCCCNC(=O)[C@H](CC(C)C)NC(=O)[C@@H](N)CCCCN)NC(=O)[C@H](CC(C)C)NC(=O)[C@@H](N)CCCCN)C(=O)N[C@@H](CC(C)C)C(=O)N[C@@H](CCCCN)C(=O)N[C@@H](CCCCN)C(N)=O [L-X22] (HELM PEPTIDE1{K.L.K.L.K.K.L.L.K.L.K.K.[am]}|PEPTIDE2{[CC(C)C[C@H](NC(=O)[C@@H](N)CCCCN)C(=O)NCCCC[C@H](NC(=O)[C@H](CC(C)C)NC(=O)[C@@H](N)CCCCN)C(=O)[*:2]].L}|PEPTIDE3{K.L}|PEPTIDE4{K.L.K.L.K.K.L.L}|PEPTIDE5{[CC(C)C[C@H](NC(=O)[C@@H](N)CCCCN)C(=O)NCCCC[C@H](NC(=O)[C@H](CC(C)C)NC(=O)[C@@H](N)CCCCN)C(=O)[*:2]].L}|PEPTIDE6{K.L}$PEPTIDE1,PEPTIDE2,5:R3-2:R2|PEPTIDE1,PEPTIDE3,3:R3-2:R2|PEPTIDE4,PEPTIDE5,5:R3-2:R2|PEPTIDE4,PEPTIDE6,3:R3-2:R2|PEPTIDE1,PEPTIDE4,9:R3-8:R2$$$V2.0)	MIC, P. aeruginosa PA14 (P. aeruginosa PA14): 4 µg/mL (≈ 0.914 µM); MIC, S. aureus Newman (S. aureus Newman): >64 µg/mL; MIC, B. cenocepacia (B. cenocepacia): >64 µg/mL
8 (≈ 1.83 µM)	16	4	4	16	8	4	4 (≈ 0.914 µM)	4 (≈ 0.914 µM)	> 64	> 64	4	> 64	> 64	16	8 (≈ 1.83 µM)	8	4	4	4 (≈ 0.914 µM)	CC(C)C[C@@H](NC(=O)[C@H](N)CCCCN)C(=O)NCCCC[C@@H](NC(=O)[C@@H](CC(C)C)NC(=O)[C@H](N)CCCCN)C(=O)N[C@H](CC(C)C)C(=O)NCCCC[C@@H](NC(=O)[C@@H](CC(C)C)NC(=O)[C@@H](CCCCNC(=O)[C@@H](CC(C)C)NC(=O)[C@H](N)CCCCN)NC(=O)[C@@H](CC(C)C)NC(=O)[C@H](N)CCCCN)C(=O)N[C@H](CCCCN)C(=O)N[C@H](CC(C)C)C(=O)N[C@H](CC(C)C)C(=O)NCCCC[C@@H](NC(=O)[C@@H](CC(C)C)NC(=O)[C@@H](CC(C)C)NC(=O)[C@@H](CCCCN)NC(=O)[C@@H](CCCCNC(=O)[C@@H](CC(C)C)NC(=O)[C@@H](CCCCNC(=O)[C@@H](CC(C)C)NC(=O)[C@H](N)CCCCN)NC(=O)[C@@H](CC(C)C)NC(=O)[C@H](N)CCCCN)NC(=O)[C@@H](CC(C)C)NC(=O)[C@@H](CCCCNC(=O)[C@@H](CC(C)C)NC(=O)[C@H](N)CCCCN)NC(=O)[C@@H](CC(C)C)NC(=O)[C@H](N)CCCCN)C(=O)N[C@H](CC(C)C)C(=O)N[C@H](CCCCN)C(=O)N[C@H](CCCCN)C(N)=O [D-X22] (HELM PEPTIDE1{[dK].[dL].[dK].[dL].[dK].[dK].[dL].[dL].[dK].[dL].[dK].[dK].[am]}|PEPTIDE2{[CC(C)C[C@@H](NC(=O)[C@H](N)CCCCN)C(=O)NCCCC[C@@H](NC(=O)[C@@H](CC(C)C)NC(=O)[C@H](N)CCCCN)C(=O)[*:2]].[dL]}|PEPTIDE3{[dK].[dL]}|PEPTIDE4{[dK].[dL].[dK].[dL].[dK].[dK].[dL].[dL]}|PEPTIDE5{[CC(C)C[C@@H](NC(=O)[C@H](N)CCCCN)C(=O)NCCCC[C@@H](NC(=O)[C@@H](CC(C)C)NC(=O)[C@H](N)CCCCN)C(=O)[*:2]].[dL]}|PEPTIDE6{[dK].[dL]}$PEPTIDE1,PEPTIDE2,5:R3-2:R2|PEPTIDE1,PEPTIDE3,3:R3-2:R2|PEPTIDE4,PEPTIDE5,5:R3-2:R2|PEPTIDE4,PEPTIDE6,3:R3-2:R2|PEPTIDE1,PEPTIDE4,9:R3-8:R2$$$V2.0)	MIC, P. aeruginosa PA14 (P. aeruginosa PA14): 4 µg/mL (≈ 0.914 µM); MIC, S. aureus Newman (S. aureus Newman): 64 µg/mL (≈ 14.6 µM); MIC, B. cenocepacia (B. cenocepacia): >64 µg/mL
	16	8	16	2	4	4			64	16	4	64	8	8		2	4	4		CC(C)C[C@H](NC(=O)CCCCCN)C(=O)NCCCC[C@H](NC(=O)[C@H](CC(C)C)NC(=O)CCCCCN)C(=O)N[C@@H](CC(C)C)C(=O)NCCCC[C@H](NC(=O)[C@H](CC(C)C)NC(=O)[C@H](CCCCNC(=O)[C@H](CC(C)C)NC(=O)CCCCCN)NC(=O)[C@H](CC(C)C)NC(=O)CCCCCN)C(=O)N[C@@H](CCCCN)C(=O)N[C@@H](CC(C)C)C(=O)N[C@@H](CC(C)C)C(=O)NCCCC[C@H](NC(=O)[C@H](CC(C)C)NC(=O)[C@H](CC(C)C)NC(=O)[C@H](CCCCN)NC(=O)[C@H](CCCCNC(=O)[C@H](CC(C)C)NC(=O)[C@H](CCCCNC(=O)[C@H](CC(C)C)NC(=O)CCCCCN)NC(=O)[C@H](CC(C)C)NC(=O)CCCCCN)NC(=O)[C@H](CC(C)C)NC(=O)[C@H](CCCCNC(=O)[C@H](CC(C)C)NC(=O)CCCCCN)NC(=O)[C@H](CC(C)C)NC(=O)CCCCCN)C(=O)N[C@@H](CC(C)C)C(=O)N[C@@H](CCCCN)C(=O)N[C@@H](CCCCN)C(N)=O [L-aX22] (I: H-[Ahx]LK([Leu-Ahx])LK([Leu-X3])KLLKLKK-NH2 / II: H-[Ahx]LK([Leu-Ahx])LK([Leu-X3])KLL; amide I:9-II:C)	IC50 HEK293 (HEK293 cell line): 24 ± 3 µg/mL (≈ 5.64 µM)
